The values that follow are results of earlier work, collected in patent US20150209442A1, “METHOD TO IMPROVE PHARMACOKINETICS OF DRUGS” (The Board of Regents of the University of Texas System, priority 2012, published 2015).

The subject of one series is TRPV1. Conditions: spinal cord; completely reversible by a TRPV1 antagonist.

For 9-hydroxyoctadecadienoic acid [9-HODE], the tactile allodynia result with TRPV1 is listed as “results in tactile allodynia”. As for `COc1cc(CNC(=O)CCCC/C=C/C(C)C)ccc1O` [capsaicin], the tactile allodynia entry in the series with TRPV1 is “results in tactile allodynia”. With `CC(C(=O)O)c1ccc(-c2ccccc2)c(F)c1` (stereo not shown) [flurbiprofen], the “bound to plasma proteins” value is recorded as over 99%. For the same compound, the “free (unbound) share of total concentration in plasma” value (plasma) is about 0.1%.
